The results in this text go back to ChEMBL document CHEMBL2074488, “Kinetic and selectivity differences between rodent, rabbit, and human organic cation transporters (OCT1)” (J Pharmacol Exp Ther, 2000).

For series [1], the target named is T1, Solute carrier family 22 member 1 (Mus musculus, UniProt O08966).
T1 sequence (O08966 whole entry): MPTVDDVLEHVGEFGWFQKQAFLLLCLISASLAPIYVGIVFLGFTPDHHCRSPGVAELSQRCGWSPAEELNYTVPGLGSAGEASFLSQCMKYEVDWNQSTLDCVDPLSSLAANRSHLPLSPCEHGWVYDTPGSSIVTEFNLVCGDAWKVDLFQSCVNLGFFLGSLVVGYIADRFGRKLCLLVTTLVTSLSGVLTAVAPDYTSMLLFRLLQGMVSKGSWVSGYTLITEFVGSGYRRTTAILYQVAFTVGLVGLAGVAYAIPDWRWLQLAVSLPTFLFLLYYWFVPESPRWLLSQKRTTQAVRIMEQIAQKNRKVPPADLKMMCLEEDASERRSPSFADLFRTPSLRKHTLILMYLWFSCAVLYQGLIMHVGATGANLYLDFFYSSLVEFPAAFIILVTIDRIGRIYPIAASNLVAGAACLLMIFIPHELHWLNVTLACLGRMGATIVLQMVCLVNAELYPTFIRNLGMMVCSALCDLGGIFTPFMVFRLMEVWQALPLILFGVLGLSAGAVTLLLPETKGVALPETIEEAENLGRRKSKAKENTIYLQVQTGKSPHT
Nature of the series: (§1) TP_TRANSPORTER: trans-stimulation of MPP+ uptake (MPP+: 1 uM, TPeA: 200 uM) in Xenopus laevis oocytes. The format is functional, cell-based. To be noted: oocyte.

For series [2], the target named is T2, Solute carrier family 22 member 1 (Homo sapiens, UniProt O15245).
T2 sequence (O15245 whole entry): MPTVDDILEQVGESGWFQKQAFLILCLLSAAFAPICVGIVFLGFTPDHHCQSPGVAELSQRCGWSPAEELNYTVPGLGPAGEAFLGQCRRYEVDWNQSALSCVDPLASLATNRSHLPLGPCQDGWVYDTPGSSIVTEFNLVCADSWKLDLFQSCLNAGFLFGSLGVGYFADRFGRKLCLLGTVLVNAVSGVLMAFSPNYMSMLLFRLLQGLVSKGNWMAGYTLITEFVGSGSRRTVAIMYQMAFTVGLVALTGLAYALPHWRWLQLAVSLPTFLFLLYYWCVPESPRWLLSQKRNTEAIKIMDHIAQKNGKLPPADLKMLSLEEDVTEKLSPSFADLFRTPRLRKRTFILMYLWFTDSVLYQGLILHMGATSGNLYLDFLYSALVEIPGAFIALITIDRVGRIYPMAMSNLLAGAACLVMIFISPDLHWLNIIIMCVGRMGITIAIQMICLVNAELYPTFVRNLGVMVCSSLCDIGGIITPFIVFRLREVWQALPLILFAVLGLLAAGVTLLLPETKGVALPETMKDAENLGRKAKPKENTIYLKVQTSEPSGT
The series is described as §1. It is filed as functional, cell-based. To be noted: oocyte.

Series [3] has as its target T3, Solute carrier family 22 member 1 (Rattus norvegicus, UniProt Q63089).
T3 sequence (Q63089 whole entry): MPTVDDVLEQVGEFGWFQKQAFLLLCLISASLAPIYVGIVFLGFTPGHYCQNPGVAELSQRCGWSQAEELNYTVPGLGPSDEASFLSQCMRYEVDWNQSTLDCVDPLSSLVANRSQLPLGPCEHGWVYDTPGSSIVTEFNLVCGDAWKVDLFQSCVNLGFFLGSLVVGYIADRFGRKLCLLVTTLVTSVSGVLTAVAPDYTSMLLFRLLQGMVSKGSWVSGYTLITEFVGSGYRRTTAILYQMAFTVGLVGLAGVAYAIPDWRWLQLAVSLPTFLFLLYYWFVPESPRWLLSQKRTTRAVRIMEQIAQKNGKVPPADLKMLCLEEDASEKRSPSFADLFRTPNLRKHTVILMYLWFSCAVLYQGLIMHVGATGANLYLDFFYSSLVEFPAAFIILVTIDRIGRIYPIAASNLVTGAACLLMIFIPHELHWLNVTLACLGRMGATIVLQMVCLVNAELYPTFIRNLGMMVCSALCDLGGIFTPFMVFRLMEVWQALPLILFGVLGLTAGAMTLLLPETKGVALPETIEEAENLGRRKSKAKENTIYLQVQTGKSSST
Described as §1. The format is functional, cell-based. To be noted: oocyte.

The target of series [4] is T1, Solute carrier family 22 member 1. In words: (§2) TP_TRANSPORTER: inhibition of MPP+ uptake in Xenopus laevis oocytes. It is filed as functional, cell-based, Oocyte.
The target in series [5] is T2, Solute carrier family 22 member 1. Described as §2. The format is functional, cell-based, Oocyte.
The target in series [6] is T3, Solute carrier family 22 member 1. The description is as §2. It is filed as functional, cell-based, Oocyte.

For the compound `CCCCC[N+](CCCCC)(CCCCC)CCCCC` [TETRAPENTYLAMMONIUM], the Activity result in series [1] was “inhibitor [trans-inhibited: (at a rough estimate) 30 % of control]”; in series [2], “is not an inhibitor [-]”; in series [3] it was “inhibitor [trans-inhibited: (at a rough estimate) 80 % of control]”.

For `CCC[N+](CCC)(CCC)CCC` [TETRAPROPYLAMMONIUM], the values for the Ki in series [4], in series [5] and in series [6] were 19.8 µM, 102 µM and 21 µM, respectively.

`CCCC[N+](CCCC)(CCCC)CCCC` [TETRABUTHYLAMMONIUM]: the Ki – broadly, a measure of affinity in units of concentration, obtained from inhibition or displacement – in series [4] was determined as 7.3 µM; in series [5], 29.6 µM; in series [6], 17 µM.

Turning to `C[N+](C)(C)C` [TETRAMETHYLAMMONIUM], the Ki in series [4] came out at 2040 µM; in series [5] it was 12400 µM.

On to `CC[N+](CC)(CC)CC` [TETRYLAMMONIUM], for which the Ki turned out to be 128 µM in series [4], 158 µM in series [5] and 100 µM in series [6].
